For one experiment, the target named is T1, FLT3 (Homo sapiens, UniProt P36888).
T1 sequence (P36888 27-993): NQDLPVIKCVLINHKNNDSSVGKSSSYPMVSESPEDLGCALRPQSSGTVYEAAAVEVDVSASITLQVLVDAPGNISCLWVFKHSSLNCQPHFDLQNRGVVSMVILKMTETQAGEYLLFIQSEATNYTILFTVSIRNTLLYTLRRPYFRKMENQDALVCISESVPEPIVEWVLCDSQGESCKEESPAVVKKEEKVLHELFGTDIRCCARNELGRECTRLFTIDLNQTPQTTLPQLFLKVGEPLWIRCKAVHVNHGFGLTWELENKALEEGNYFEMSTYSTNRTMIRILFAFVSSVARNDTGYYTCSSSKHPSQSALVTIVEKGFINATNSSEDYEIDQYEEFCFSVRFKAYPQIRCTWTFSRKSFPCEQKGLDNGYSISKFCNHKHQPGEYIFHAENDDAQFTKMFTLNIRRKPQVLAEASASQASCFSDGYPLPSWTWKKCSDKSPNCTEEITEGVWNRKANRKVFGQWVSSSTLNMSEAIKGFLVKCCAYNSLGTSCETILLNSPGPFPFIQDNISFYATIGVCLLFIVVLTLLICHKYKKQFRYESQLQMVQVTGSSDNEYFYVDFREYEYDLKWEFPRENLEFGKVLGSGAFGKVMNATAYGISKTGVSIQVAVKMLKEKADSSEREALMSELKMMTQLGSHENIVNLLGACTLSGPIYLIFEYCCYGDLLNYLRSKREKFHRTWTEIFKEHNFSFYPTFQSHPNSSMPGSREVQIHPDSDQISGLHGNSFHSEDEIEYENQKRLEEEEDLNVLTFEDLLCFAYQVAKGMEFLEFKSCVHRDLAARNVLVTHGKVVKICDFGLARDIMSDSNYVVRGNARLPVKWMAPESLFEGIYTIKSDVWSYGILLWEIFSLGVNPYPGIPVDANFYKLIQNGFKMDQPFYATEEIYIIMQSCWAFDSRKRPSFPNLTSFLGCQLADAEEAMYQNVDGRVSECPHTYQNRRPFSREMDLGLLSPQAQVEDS
Kind of experiment: TR-FRET kinase activity assay, FLT3. The format is biochemical. As to conditions: ATP at Km, 60 minutes. In a few lines: (§1)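 Each kinase phosphorylated a fluorescent-labelled tyrosine peptide in 50 mM HEPES pH 7.5, 10 mM MgCl2, 1 mM EGTA, 0.01% Brij 35, 1 mM DTT at RT, with ATP at Km for that enzyme. After 60 min, EDTA quench and Eu-anti-phosphotyrosine antibody (30 min, dark); IC50 from TR-FRET decrease.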
A general note: TR-FRET usually uses a lanthanide donor and a delayed reading to cut background.

The target of a further experiment is T2, MERTK (Homo sapiens, UniProt Q12866).
T2 sequence (Q12866 21-999): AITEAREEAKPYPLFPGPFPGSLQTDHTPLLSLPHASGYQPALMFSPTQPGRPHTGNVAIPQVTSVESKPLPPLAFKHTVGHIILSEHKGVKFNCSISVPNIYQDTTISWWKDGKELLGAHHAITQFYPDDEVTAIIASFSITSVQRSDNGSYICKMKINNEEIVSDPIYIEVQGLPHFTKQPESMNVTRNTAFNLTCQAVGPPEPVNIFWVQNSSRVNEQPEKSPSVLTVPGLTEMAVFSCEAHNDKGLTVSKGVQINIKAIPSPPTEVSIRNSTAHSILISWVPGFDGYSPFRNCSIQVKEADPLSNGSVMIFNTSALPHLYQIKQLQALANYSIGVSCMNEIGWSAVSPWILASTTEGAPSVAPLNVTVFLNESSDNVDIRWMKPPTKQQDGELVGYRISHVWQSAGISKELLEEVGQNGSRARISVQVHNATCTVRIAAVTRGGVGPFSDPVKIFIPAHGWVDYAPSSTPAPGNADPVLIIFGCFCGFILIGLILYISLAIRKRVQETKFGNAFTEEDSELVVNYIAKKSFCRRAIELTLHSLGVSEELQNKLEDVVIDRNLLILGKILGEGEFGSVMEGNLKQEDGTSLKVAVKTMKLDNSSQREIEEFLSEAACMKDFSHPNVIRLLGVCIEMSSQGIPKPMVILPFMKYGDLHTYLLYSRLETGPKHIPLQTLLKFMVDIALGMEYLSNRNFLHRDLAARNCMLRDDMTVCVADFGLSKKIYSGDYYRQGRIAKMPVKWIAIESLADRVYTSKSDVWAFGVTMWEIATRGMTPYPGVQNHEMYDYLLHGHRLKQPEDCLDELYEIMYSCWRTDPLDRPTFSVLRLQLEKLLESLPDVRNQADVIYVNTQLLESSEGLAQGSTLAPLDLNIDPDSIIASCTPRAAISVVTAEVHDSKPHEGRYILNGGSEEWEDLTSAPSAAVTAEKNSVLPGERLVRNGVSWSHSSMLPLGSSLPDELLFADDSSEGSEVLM
In words: TR-FRET kinase activity assay, MERTK. The format is biochemical. Particulars: for IC50: TR-FRET activity assay, ATP at Km, 60 minutes, read-out: Mer IC50; for FLT3/Mer ratio (FLT3 IC50/Mer IC50): ratio calculated as FLT3 IC50/Mer IC50. The method, boiled down: as §1

Where only a bound is given, the exact number is not on record here.

The IC50 is the concentration needed to halve the response being measured.

At FLT3, `COC[C@H](C)Nc1ncc2c(C3=C[C@H]4CCC(C3)N4C(C)=O)cc([C@H]3CC[C@H](O)CC3)n2n1` [Compound 468] showed an IC50 of 100 to 1000 nM. On MERTK, the IC50 is ≤ 100 nM and the “FLT3/Mer ratio (FLT3 IC50/Mer IC50)” value is on record as “+++ (“+++” represents a ratio of >100)”.
Turning to `COC[C@H](C)Nc1ncc2c(C3=C[C@H]4CC[C@@H](C3)N4C(=O)N3CCOCC3)cc([C@H]3CC[C@H](O)CC3)n2n1` [Compound 469], the values for the IC50 at FLT3 and at MERTK were 100 to 1000 nM and ≤ 100 nM, respectively. The “FLT3/Mer ratio (FLT3 IC50/Mer IC50)” value on MERTK is “+++ (“+++” represents a ratio of >100)”.
On the same counts, the results for `COC[C@H](C)Nc1ncc2c(-c3cnn([C@H]4CCN(C)C4=O)c3)cc([C@H]3CC[C@H](O)CC3)n2n1` [Compound 470] are 100 to 1000 nM, ≤ 100 nM and “+++ (“+++” represents a ratio of >100)”.
With `COC[C@H](C)Nc1ncc2c(-c3cnn([C@@H]4CCN(C)C4=O)c3)cc([C@H]3CC[C@H](O)CC3)n2n1` [Compound 471], at FLT3, the IC50 fell in the range of 1000 to 10000 nM. Moreover, at MERTK, the IC50 is ≤ 100 nM and the “FLT3/Mer ratio (FLT3 IC50/Mer IC50)” value was “+++ (“+++” represents a ratio of >100)”.
On the same counts, the results for `COC[C@H](C)Nc1ncc2c(-c3cnn(C[C@@H]4CC(=O)N(C)C4)c3)cc([C@H]3CC[C@H](O)CC3)n2n1` [Compound 473] are 100 to 1000 nM, ≤ 100 nM and “+++ (“+++” represents a ratio of >100)”.
The corresponding values for `COC[C@H](C)Nc1ncc2c(-c3cnn(C[C@@H]4CCO4)c3)cc([C@H]3CC[C@H](O)CC3)n2n1` [Compound 474] are 100 to 1000 nM, ≤ 100 nM and “+++ (“+++” represents a ratio of >100)”.
`COC[C@H](C)Nc1ncc2c(-c3cnn(C[C@H]4CC(=O)N(C)C4)c3)cc([C@H]3CC[C@H](O)CC3)n2n1` [Compound 475] displayed an IC50 against FLT3 of 100 to 1000 nM. Besides, at MERTK, the IC50 was ≤ 100 nM and the “FLT3/Mer ratio (FLT3 IC50/Mer IC50)” value was “+++ (“+++” represents a ratio of >100)”.
Regarding `COC[C@H](C)Nc1ncc2c(-c3cnn(C[C@@H]4CCO4)c3)cc([C@H]3CC[C@H](O)CC3)n2n1` [Compound 478], the IC50 against FLT3 was in the range of 1000 to 10000 nM. Also, on MERTK, the IC50 is ≤ 100 nM and the “FLT3/Mer ratio (FLT3 IC50/Mer IC50)” value is “+++ (“+++” represents a ratio of >100)”.
On the same counts, the results for `COC[C@H](C)Nc1ncc2c(-c3ccnc(N4Cc5nc(C)sc5C4)c3)cc([C@H]3CC[C@H](O)CC3)n2n1` [Compound 479, (trans)-4-(2-(((S)-1-methoxypropan-2-yl)amino)-5-(2-(2-methyl-4H-pyrrolo[3,4-d]thiazol-5(6H)-yl)pyridin-4-yl)pyrrolo[2,1-f][1,2,4]triazin-7-yl)cyclohexanol] are 1000 to 10000 nM, ≤ 100 nM and “+++ (“+++” represents a ratio of >100)”.
The corresponding values for `COC[C@H](C)Nc1ncc2c(-c3ccnc(N4CCOC5(COC5)C4)c3)cc([C@H]3CC[C@H](O)CC3)n2n1` [Compound 480] are 100 to 1000 nM, ≤ 100 nM and “+++ (“+++” represents a ratio of >100)”.
In the case of `COC[C@H](C)Nc1ncc2c(C#N)cc([C@H]3CC[C@H](O)CC3)n2n1` [Compound 481], the IC50 against FLT3 lay in the range of 1000 to 10000 nM. Further, at MERTK, the IC50 was ≤ 100 nM and the “FLT3/Mer ratio (FLT3 IC50/Mer IC50)” value was “+++ (“+++” represents a ratio of >100)”.
For `COC[C@H](C)Nc1ncc2c([C@H]3CC[C@@H](C(=O)N4CCOCC4)CC3)cc([C@H]3CC[C@H](O)CC3)n2n1` [Compound 484], the IC50 on FLT3 is 1000 to 10000 nM. Moreover, on MERTK, the IC50 is ≤ 100 nM and the “FLT3/Mer ratio (FLT3 IC50/Mer IC50)” value is on record as “+++ (“+++” represents a ratio of >100)”.
As to `COC[C@H](C)Nc1ncc2c(C3=C[C@@H]4CC[C@H](C3)N4CC(F)(F)F)cc([C@H]3CC[C@H](O)CC3)n2n1` [Compound 485], the IC50 against FLT3 lay within 100 to 1000 nM. On MERTK, the IC50 is ≤ 100 nM and the “FLT3/Mer ratio (FLT3 IC50/Mer IC50)” value is “+++ (“+++” represents a ratio of >100)”.

The values above are taken from US11040981B2, “Pyrrolotriazine compounds and methods of inhibiting TAM kinases” (Syros Pharmaceuticals, Inc., priority 2017, dated 2021).
